How the values were obtained:
swine adipose tissue = experiment: inhibition of lipogenesis (incorporation of radioactive glucose into lipid) in pig adipose tissue slices; assay type: cell-based, pig (swine); conditions: Sus scrofa, glucose-U-14C, 100 micrograms per milliliter, 37° C., 2 hours, vs control, read-out: Percent Inhibition of lipogenesis
Description: (§1) The manner in which they cause this effect is not known with certainty; it is believed that they interfere with the synthesis of fatty acids in the tissues. Their effectiveness for this purpose has been ascertained by immersing samples of mammalian liver or adipose tissue in a liquid medium containing radioactive glucose and the test chemical for a period of time, then isolating the lipid from the treated tissue and determining the incorporation of the radioactive carbon into the lipid by means of scintillation counting techniques. These tests were conducted with both liver and adipose tissues, because in some animals the primary site of lipogenesis appears to be liver tissue, while in others it appears to be adipose tissue. The test animals were pigs, sheep, rabbits, cats and dogs.
Described in more detail, the tests were conducted according to the following general procedure:
Tissue slices (200 milligrams for liver; 150 milligrams for adipose tissue) were incubated, at 37° C. for 2 hours with shaking in 3 milliliters of Krebs-Ringer bicarbonate solution containing one-half the normal calcium ion concentration, 60 micromoles of glucose, 0.5 micro-Curie of glucose-U-^14 C, 300 microunits of insulin, and 5% dimethyl sulfoxide (DMSO). The test compounds were added as a solution or a suspension in DMSO and were present at a concentration of 100 micrograms per milliliter of the incubation mixture.
The incubation was terminated by addition of 0.25 milliliter of 1 N sulfuric acid. The incubation mixture was extracted with a total of 25 milliliters of chloroform:methanol (2:1, v/v). The extracts were washed according to Folch et al. (J. Biol. Chem., 226, 497-509, (1957)), air dried, and counted in a liquid scintillation counter with 15 milliliters of counting fluid (two parts toluene containing 0.4% w/v New England Nuclear Omnifluor: 1 part Triton X-100). The tests were conducted in triplicate and were accompanied by control tests in which all ingredients,proportions and conditions were the same except that no test compound was included. From the data obtained was calculated the percent inhibition of lipid synthesis by the test compound in each case.
Compound 2 was tested with respect to all of the animals. The other six compounds were tested only with respect to the pig.
From these and other tests, it was established that in pigs there is little lipogenic activity in the liver tissue. From these and other tests, it also has been established that swine adipose tissue utilizes glucose for lipogenesis, and to be the major site of fatty acid synthesis. The data obtained from the tests using adipose tissue and glucose are set out in Table 1, as the percent inhibition of lipogenesis compared to the results obtained in the control tests wherein only the test compound was omitted.

sheep liver = experiment: inhibition of glucose incorporation into lipids in sheep liver slices; assay type: cell-based; conditions: 100 micrograms per milliliter, 2 hours
Description: as §1
(§2) Described in more detail, the tests were conducted according to the following general procedure: […]
(§3) The incubation was terminated by addition of 0.25 milliliter of 1 N sulfuric acid. […] The extracts were washed according to Folch et al. (J. Biol. Chem., 226, 497-509, (1957)), air dried, and counted in a liquid scintillation counter with 15 milliliters of counting fluid (two parts toluene containing 0.4% w/v New England Nuclear Omnifluor: 1 part Triton X-100). […] From the data obtained was calculated the percent inhibition of lipid synthesis by the test compound in each case. […]

sheep adipose tissue = experiment: inhibition of glucose incorporation into lipids in sheep adipose tissue slices; assay type: cell-based; conditions: 100 micrograms per milliliter, 2 hours
Description: as §1, §2, §3

rabbit liver = experiment: inhibition of glucose incorporation in rabbit liver slices; assay type: cell-based; conditions: 100 micrograms per milliliter, 2 hours
Description: as §1, §2, §3

rabbit adipose tissue = experiment: inhibition of glucose incorporation in rabbit adipose tissue slices; assay type: cell-based; conditions: 100 micrograms per milliliter, 2 hours
Description: as §1, §2, §3

cat liver = experiment: inhibition of glucose utilization in cat liver slices; assay type: cell-based; conditions: 100 micrograms per milliliter, 2 hours
Description: as §1, §2, §3

cat adipose tissue = experiment: inhibition of glucose utilization in cat adipose tissue slices; assay type: cell-based; conditions: 100 micrograms per milliliter, 2 hours, result in words
Description: as §1, §2, §3

dog adipose tissue = experiment: inhibition of glucose utilization in dog adipose tissue slices; assay type: cell-based; conditions: 100 micrograms per milliliter, 2 hours
Description: as §1, §2, §3

[1] = system: lipogenesis in swine adipose tissue; experiment: in vivo test of inhibition of lipogenesis in swine, compound in feed, adipose tissue biopsy samples; set-up: species or system pig (swine); conditions: young, growing pigs, in feed approximately 50 milligrams per kilogram per day for seven days
Protocol: The effect of compound 2 on inhibition of lipogenesis in swine was confirmed by an in vivo test in which Compound 2 was included in the feed given to young, growing pigs for seven days, at a dosage of approximately 50 milligrams of Compound 2 per kilogram of the pig's body weight per day. Adipose tissue biopsy samples were taken at days 0, 6, 7 and 13 (one week off the drug) and the effect of the test compound on lipogenesis was determined using tissue slices prepared from the biopsy samples, by the procedure used in the in vitro tests.

For `C=CCNC(=O)C1COc2ccccc2C1` (stereo not drawn) [Compound 2, 3,4-Dihydro-N-(2-propenyl)-2H-1-benzopyran-3-carboxamide], the inhibition at 100 µg/mL (swine adipose tissue) was 83%, the “inhibition of glucose incorporation in the liver” value (sheep liver) was 32% and the “inhibition of glucose incorporation in adipose tissue” value (sheep adipose tissue) was 36%. For the same compound, the “inhibition of glucose incorporation into liver” value (rabbit liver) was 9%, the “inhibition of glucose incorporation in adipose tissue” value (rabbit adipose tissue) was 22% and the “inhibition of glucose utilization in the liver” value (cat liver) was 26%. For the same compound, the “inhibition of glucose utilization in adipose tissue” value (cat adipose tissue) was “did not inhibit glucose utilization”, the “inhibition of glucose utilization in adipose tissue” value (dog adipose tissue) was 73% and the symptom of toxicity [1] was “No symptom of toxicity due to the test compound was noted”. The “effect on lipogenesis in vivo” value ([1]; day 13 (one week off the drug)) was “significantly reduced lipogenesis”.

`C=CCNC(=O)C1CCc2cc(Oc3ccccc3)ccc2O1` (stereo not drawn) [Compound 8, 3,4-Dihydro-6-phenoxy-N-(2-propenyl)-2H-1-benzopyran-2-carboxamide] gave an inhibition at 100 µg/mL (swine adipose tissue) of 64%.

In the case of `C=CCNC(=O)C1CCc2cc(C)ccc2O1` (stereo not drawn) [Compound 9, 3,4-Dihydro-6-methyl-N-(2-propenyl)-2H-1-benzopyran-2-carboxamide], the inhibition at 100 µg/mL (swine adipose tissue) is reported as 70%.

In the case of `C=CCNC(=O)C1COc2ccc(Cl)cc2C1` (stereo not drawn) [Compound 6, 6-Chloro-3,4-dihydro-N-(2-propenyl)-2H-1-benzopyran-3-carboxamide], the inhibition at 100 µg/mL (swine adipose tissue) is reported as 67%.

Work on `C=CCNC(=O)C1CCc2cc(Cl)ccc2O1` (stereo not drawn) [Compound 1, 6-Chloro-3,4-dihydro-N-(2-propenyl)-2H-1-benzopyran-2-carboxamide] yielded an inhibition at 100 µg/mL (swine adipose tissue) of 59%.

`C=CCNC(=O)[C@@H]1C[C@H](O)c2cc(Cl)ccc2O1` (relative stereo) [Compound 7, 6-Chloro-4-hydroxy-N-(2-propenyl)-2H-1-benzopyran-2-carboxamide (cis)] was tested, and the inhibition at 100 µg/mL (swine adipose tissue) was 55%.

`C=CCNC(=O)C1CCc2ccccc2O1` (stereo not drawn) [Compound 3, 3,4-Dihydro-N-(2-propenyl)-2H-1-benzopyran-2-carboxamide] gave an inhibition at 100 µg/mL (swine adipose tissue) of 72%.

Work on `C=CCNC(=O)C1CCc2cc(C3CCCCC3)ccc2O1` (stereo not drawn) [Compound 5, 6-Cyclohexyl-3,4-dihydro-N-(2-propenyl)-2H-1-benzopyran-2-carboxamide] yielded an inhibition at 100 µg/mL (swine adipose tissue) of 40%.

`C=CCNC(=O)C1CCc2cc(-c3ccccc3)ccc2O1` (stereo not drawn) [Compound 4, 3,4-Dihydro-6-phenyl-N-(2-propenyl)-2H-1-benzopyran-2-carboxamide] showed an inhibition at 100 µg/mL (swine adipose tissue) of 76%.
